Data published in patent publication US9827219B2, “Compositions and methods for lowering levels of high-sensitivity C-reactive protein (HS-CRP) in a subject” (priority 2012, dated 2017).

Assays:
Type in all cases: in vivo, human
[1] = system: hsCRP; test: hsCRP in patients with diabetes mellitus-2 (Example 2); conditions: 4 g/day, 12 weeks, on statin
From the text: (§1) Parameters (a)-(y) can be measured in accordance with any clinically acceptable methodology. For example, triglycerides, total cholesterol, HDL-C and fasting blood sugar can be sample from serum and analyzed using standard photometry techniques. VLDL-TG, LDL-C and VLDL-C can be calculated or determined using serum lipoprotein fractionation by preparative ultracentrifugation and subsequent quantitative analysis by refractometry or by analytic ultracentrifugal methodology. Apo A1, Apo B and hsCRP can be determined from serum using standard nephelometry techniques. Lipoprotein (a) can be determined from serum using standard turbidimetric immunoassay techniques. LDL particle number and particle size can be determined using nuclear magnetic resonance (NMR) spectrometry. Remnants lipoproteins and LDL-phospholipase A2 can be determined from EDTA plasma or serum and serum, respectively, using enzymatic immunoseparation techniques. Oxidized LDL, intercellular adhesion molecule-1 and interleukin-2 levels can be determined from serum using standard enzyme immunoassay techniques. These techniques are described in detail in standard textbooks, for example Tietz Fundamentals of Clinical Chemistry, 6th Ed. (Burtis, Ashwood and Borter Eds.), WB Saunders Company.
(§2) The effect of >96% E-EPA on lipid and inflammatory parameters was evaluated in patients with fasting triglyceride levels ≧150 mg/dl and <499 mg/dl on concomitant statin therapy. Patients with diabetes mellitus-2 were randomized and treated with either 2 g/day >96% E-EPA, 4 g/day >96%, or placebo for twelve weeks. At the end of the treatment period, several diabetes efficacy endpoints were evaluated including, TG, LDL-C, non-HDL-C, VLDL-C, Lp-PLA2, Apo B, TC, HDL-C, VLDL-TG, hs-CRP, oxLDL, and RLP-C.

[2] = system: Non-HDL-C; test: Non-HDL-C in patients with diabetes mellitus-2 (Example 2); conditions: 4 g/day, 12 weeks, on statin
Description: as §2

[3] = system: Ox-LDL; test: MARINE study, oxidized LDL; conditions: MARINE ITT, week 12
From the text: as §1, with “Company. […]” for “Company.”

[4] = system: Apo B; test: Apo B in patients with diabetes mellitus-2 (Example 2); conditions: 4 g/day, 12 weeks, on statin
From the text: as §1, with “(Burtis, Ashwood and Borter Eds.), WB Saunders Company.” left out
(§3) The effect of >96% E-EPA on lipid and inflammatory parameters was evaluated in patients with fasting triglyceride levels ≧150 mg/dl and <499 mg/dl on concomitant statin therapy. […]

[5] = system: TG; test: TG in patients with diabetes mellitus-2 (Example 2); conditions: 4 g/day, 12 weeks, on statin
From the text: as §1, with “(Burtis, Ashwood and Borter Eds.), WB Saunders Company.” left out
as §3

[6] = less-controlled diabetes (HbA1c ≧ median of 6.8%)
[7] = well-controlled diabetes (HbA1c < median of 6.8%)

**Q.** What does the source list for `CC/C=C\C/C=C\C/C=C\C/C=C\C/C=C\CCCC(=O)OCC` [AMR101, all-cis eicosa-5,8,11,14,17-pentaenoic acid ethyl ester]?
**A.** Median placebo-adjusted percent change in hsCRP from baseline to study end [1, 6]: −34.6%; Median placebo-adjusted percent change in hsCRP from baseline to study end ([1]; total diabetes): −21.5%; Median placebo-adjusted percent change in hsCRP from baseline to study end [1, 7]: −4.0%; Median placebo-adjusted percent change in Non-HDL-C from baseline to study end [2, 6]: −18.0%; Median placebo-adjusted percent change in Non-HDL-C from baseline to study end ([2]; total diabetes): −14.4%; Median placebo-adjusted percent change in Non-HDL-C from baseline to study end [2, 7]: −11.3%; Ox-LDL change from baseline (median) ([3]; 2 g/day): 0.4%; Ox-LDL change from baseline (median) ([3]; 4 g/day): −3.0%; Median placebo-adjusted percent change in Apo B from baseline to study end ([4]; total diabetes): −9.5%; Median placebo-adjusted percent change in Apo B from baseline to study end [4, 7]: −6.1%; Median placebo-adjusted percent change in TG from baseline to study end ([5]; total diabetes): −23.2%; Median placebo-adjusted percent change in TG from baseline to study end [5, 7]: −21.0%
